{"source": "the kinase profiling compilation of Christmann-Franck et al. (2016)", "experiment_in_all_cases": "KINOMEscan competition binding", "details_in_all_cases": "compound 1.0 µM", "key": {"ERBB3 (human)": {"target": "ERBB3 (human) (UniProt P21860)", "sequence (P21860 whole entry, looked up)": "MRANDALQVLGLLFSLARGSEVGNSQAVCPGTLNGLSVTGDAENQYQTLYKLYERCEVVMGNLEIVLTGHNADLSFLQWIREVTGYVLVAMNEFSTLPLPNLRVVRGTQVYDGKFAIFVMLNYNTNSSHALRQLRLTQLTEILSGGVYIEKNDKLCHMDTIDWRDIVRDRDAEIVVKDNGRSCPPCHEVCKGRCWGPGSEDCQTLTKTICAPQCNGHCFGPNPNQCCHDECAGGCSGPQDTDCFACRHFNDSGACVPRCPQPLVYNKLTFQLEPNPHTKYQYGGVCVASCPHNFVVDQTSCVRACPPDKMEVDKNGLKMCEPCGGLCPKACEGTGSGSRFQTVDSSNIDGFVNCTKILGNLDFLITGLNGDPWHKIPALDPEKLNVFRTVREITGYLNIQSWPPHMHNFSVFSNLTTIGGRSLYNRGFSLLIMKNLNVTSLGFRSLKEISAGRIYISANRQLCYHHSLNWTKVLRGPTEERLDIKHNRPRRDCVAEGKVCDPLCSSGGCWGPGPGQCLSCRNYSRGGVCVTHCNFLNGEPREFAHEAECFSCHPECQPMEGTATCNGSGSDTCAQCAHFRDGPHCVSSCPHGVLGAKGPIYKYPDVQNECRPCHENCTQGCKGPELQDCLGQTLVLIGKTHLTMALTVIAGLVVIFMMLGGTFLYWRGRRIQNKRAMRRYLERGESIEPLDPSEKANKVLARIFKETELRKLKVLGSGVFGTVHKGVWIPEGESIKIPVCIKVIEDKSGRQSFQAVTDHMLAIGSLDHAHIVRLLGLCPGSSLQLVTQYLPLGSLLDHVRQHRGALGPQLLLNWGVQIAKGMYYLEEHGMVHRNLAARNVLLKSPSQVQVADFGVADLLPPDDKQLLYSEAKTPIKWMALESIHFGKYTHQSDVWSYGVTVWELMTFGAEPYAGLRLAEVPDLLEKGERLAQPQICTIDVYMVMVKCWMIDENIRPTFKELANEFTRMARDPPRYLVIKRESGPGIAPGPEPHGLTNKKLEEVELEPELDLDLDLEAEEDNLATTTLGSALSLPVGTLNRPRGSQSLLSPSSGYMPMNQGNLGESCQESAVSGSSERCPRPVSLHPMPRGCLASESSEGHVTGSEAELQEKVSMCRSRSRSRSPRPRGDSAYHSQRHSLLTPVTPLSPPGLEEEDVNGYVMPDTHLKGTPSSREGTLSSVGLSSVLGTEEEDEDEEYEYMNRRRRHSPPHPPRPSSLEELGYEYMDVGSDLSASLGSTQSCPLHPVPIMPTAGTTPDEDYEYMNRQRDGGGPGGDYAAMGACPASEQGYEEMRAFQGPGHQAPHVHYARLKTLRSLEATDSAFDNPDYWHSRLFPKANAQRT"}, "MAP4K2 (human)": {"target": "MAP4K2 (human) (UniProt Q12851)"}, "TGFBR2 (human)": {"target": "TGFBR2 (human) (UniProt P37173)"}, "ULK2 (human)": {"target": "ULK2 (human) (UniProt Q8IYT8)"}, "NEK7 (human)": {"target": "NEK7 (human) (UniProt Q8TDX7)"}, "MUSK (human)": {"target": "MUSK (human) (UniProt O15146)"}, "[1]": {"tested_on": "EGFR (human), P00533 [747-751 del / S ins]"}, "NUAK2 (human)": {"target": "NUAK2 (human) (UniProt Q9H093)"}, "HIPK1 (human)": {"target": "HIPK1 (human) (UniProt Q86Z02)"}, "MAPK3 (human)": {"target": "MAPK3 (human) (UniProt P27361)"}, "PIP4K2B (human)": {"target": "PIP4K2B (human) (UniProt P78356)", "sequence (P78356 whole entry, looked up)": "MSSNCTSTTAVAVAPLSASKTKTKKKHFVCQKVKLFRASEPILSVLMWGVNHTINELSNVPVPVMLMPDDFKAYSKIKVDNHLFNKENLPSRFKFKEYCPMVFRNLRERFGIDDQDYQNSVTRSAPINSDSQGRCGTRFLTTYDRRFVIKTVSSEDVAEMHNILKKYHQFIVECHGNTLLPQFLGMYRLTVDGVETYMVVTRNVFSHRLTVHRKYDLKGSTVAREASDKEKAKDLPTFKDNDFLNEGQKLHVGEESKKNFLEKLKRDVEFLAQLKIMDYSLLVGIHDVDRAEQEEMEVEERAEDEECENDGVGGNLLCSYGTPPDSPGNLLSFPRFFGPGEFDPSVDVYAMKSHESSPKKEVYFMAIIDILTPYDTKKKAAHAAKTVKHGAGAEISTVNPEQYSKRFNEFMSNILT"}, "CDK4 CCND1 (human)": {"target": "CDK4 CCND1 (human) (UniProt P11802+P24385)"}, "CHEK1 (human)": {"target": "CHEK1 (human) (UniProt O14757)"}, "PLK3 (human)": {"target": "PLK3 (human) (UniProt Q9H4B4)"}, "[2]": {"tested_on": "RET (human), P07949 [V804M]"}, "CDK19 (human)": {"target": "CDK19 (human) (UniProt Q9BWU1)"}, "EIF2AK1 (human)": {"target": "EIF2AK1 (human) (UniProt Q9BQI3)"}, "FGFR1 (human)": {"target": "FGFR1 (human) (UniProt P11362)"}, "PKMYT1 (human)": {"target": "PKMYT1 (human) (UniProt Q99640)"}, "CDKL2 (human)": {"target": "CDKL2 (human) (UniProt Q92772)"}, "CAMK4 (human)": {"target": "CAMK4 (human) (UniProt Q16566)"}, "CDKL3 (human)": {"target": "CDKL3 (human) (UniProt Q8IVW4)", "sequence (Q8IVW4 whole entry, looked up)": "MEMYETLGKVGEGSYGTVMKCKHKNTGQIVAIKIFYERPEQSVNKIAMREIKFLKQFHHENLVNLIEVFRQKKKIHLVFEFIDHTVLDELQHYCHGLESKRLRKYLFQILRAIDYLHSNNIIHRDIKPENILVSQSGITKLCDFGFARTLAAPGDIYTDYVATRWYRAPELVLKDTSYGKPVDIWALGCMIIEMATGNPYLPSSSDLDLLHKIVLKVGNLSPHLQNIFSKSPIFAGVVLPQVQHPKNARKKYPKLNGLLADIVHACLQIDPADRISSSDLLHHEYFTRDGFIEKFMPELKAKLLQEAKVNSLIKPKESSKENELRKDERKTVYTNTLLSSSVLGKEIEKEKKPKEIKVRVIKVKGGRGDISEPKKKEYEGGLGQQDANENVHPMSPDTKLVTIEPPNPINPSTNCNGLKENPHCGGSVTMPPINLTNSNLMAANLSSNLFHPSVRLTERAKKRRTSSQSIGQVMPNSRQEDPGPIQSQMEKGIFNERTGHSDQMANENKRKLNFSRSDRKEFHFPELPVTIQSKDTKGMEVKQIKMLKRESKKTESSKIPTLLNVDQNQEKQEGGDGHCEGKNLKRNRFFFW"}, "CDK9 (human)": {"target": "CDK9 (human) (UniProt P50750)"}, "STK17B (human)": {"target": "STK17B (human) (UniProt O94768)"}, "ACVR2B (human)": {"target": "ACVR2B (human) (UniProt Q13705)", "sequence (Q13705 whole entry, looked up)": "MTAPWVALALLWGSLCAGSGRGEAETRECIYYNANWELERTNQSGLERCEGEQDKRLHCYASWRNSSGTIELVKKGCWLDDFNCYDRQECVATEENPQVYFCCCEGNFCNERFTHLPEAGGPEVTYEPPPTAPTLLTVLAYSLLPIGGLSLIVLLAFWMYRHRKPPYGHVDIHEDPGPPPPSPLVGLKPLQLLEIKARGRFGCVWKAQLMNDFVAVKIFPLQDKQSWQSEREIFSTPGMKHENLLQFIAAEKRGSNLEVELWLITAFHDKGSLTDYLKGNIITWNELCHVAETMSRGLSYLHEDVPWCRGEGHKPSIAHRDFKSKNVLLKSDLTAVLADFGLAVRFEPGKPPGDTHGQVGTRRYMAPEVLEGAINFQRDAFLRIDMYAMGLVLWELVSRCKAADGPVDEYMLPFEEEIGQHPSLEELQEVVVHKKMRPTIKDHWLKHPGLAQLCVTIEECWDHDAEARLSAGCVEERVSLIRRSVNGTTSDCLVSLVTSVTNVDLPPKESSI"}, "RPS6KA2 KD1 (human)": {"target": "RPS6KA2 KD1 (human) (UniProt Q15349)"}, "RIPK2 (human)": {"target": "RIPK2 (human) (UniProt O43353)"}, "NEK1 (human)": {"target": "NEK1 (human) (UniProt Q96PY6)"}, "CDC42BPB (human)": {"target": "CDC42BPB (human) (UniProt Q9Y5S2)"}, "STK33 (human)": {"target": "STK33 (human) (UniProt Q9BYT3)", "sequence (Q9BYT3 whole entry, looked up)": "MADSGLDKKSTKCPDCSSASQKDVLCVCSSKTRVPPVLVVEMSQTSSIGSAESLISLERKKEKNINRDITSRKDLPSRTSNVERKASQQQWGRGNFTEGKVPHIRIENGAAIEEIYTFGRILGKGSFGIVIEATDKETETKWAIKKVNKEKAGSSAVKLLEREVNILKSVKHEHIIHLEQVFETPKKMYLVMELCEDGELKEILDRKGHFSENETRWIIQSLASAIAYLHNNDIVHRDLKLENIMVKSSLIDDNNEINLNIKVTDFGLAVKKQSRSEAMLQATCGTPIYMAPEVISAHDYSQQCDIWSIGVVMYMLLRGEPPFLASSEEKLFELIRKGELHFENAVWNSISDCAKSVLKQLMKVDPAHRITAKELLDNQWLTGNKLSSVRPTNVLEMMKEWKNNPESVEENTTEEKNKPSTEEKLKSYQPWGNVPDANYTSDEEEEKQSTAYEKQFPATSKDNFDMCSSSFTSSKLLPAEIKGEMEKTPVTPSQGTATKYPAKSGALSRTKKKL"}, "AAK1 (human)": {"target": "AAK1 (human) (UniProt Q2M2I8)"}, "NEK6 (human)": {"target": "NEK6 (human) (UniProt Q9HC98)"}, "BMPR2 (human)": {"target": "BMPR2 (human) (UniProt Q13873)", "sequence (Q13873 whole entry, looked up)": "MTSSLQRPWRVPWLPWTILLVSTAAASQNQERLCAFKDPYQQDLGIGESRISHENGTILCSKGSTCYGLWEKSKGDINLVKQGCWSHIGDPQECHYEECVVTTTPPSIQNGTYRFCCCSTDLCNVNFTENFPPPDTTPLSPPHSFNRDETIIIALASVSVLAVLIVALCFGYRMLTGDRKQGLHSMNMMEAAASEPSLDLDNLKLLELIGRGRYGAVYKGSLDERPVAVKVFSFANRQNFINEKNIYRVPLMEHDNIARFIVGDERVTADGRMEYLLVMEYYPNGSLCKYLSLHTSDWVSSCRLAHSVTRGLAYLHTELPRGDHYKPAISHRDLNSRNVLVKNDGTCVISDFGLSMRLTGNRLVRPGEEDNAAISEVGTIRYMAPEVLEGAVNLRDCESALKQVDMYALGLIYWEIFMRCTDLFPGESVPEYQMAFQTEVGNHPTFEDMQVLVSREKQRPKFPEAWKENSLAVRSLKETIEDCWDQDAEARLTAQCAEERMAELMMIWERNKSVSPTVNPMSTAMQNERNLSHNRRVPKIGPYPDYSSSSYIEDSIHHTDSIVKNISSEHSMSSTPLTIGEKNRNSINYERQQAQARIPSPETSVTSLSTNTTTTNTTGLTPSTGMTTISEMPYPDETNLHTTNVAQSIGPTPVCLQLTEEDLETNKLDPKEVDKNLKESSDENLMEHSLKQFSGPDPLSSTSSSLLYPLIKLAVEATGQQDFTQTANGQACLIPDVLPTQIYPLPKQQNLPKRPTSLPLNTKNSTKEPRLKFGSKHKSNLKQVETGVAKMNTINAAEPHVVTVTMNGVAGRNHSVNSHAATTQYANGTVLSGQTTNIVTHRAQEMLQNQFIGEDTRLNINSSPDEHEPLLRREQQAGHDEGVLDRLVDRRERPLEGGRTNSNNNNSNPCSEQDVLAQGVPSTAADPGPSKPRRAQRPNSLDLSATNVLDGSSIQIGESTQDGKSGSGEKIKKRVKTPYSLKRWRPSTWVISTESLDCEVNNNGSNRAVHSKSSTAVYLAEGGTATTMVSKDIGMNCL"}, "MAPK14 (human)": {"target": "MAPK14 (human) (UniProt Q16539)"}, "DDR2 (human)": {"target": "DDR2 (human) (UniProt Q16832)"}, "BMX (human)": {"target": "BMX (human) (UniProt P51813)"}, "CLK2 (human)": {"target": "CLK2 (human) (UniProt P49760)"}, "TEC (human)": {"target": "TEC (human) (UniProt P42680)", "sequence (P42680 whole entry, looked up)": "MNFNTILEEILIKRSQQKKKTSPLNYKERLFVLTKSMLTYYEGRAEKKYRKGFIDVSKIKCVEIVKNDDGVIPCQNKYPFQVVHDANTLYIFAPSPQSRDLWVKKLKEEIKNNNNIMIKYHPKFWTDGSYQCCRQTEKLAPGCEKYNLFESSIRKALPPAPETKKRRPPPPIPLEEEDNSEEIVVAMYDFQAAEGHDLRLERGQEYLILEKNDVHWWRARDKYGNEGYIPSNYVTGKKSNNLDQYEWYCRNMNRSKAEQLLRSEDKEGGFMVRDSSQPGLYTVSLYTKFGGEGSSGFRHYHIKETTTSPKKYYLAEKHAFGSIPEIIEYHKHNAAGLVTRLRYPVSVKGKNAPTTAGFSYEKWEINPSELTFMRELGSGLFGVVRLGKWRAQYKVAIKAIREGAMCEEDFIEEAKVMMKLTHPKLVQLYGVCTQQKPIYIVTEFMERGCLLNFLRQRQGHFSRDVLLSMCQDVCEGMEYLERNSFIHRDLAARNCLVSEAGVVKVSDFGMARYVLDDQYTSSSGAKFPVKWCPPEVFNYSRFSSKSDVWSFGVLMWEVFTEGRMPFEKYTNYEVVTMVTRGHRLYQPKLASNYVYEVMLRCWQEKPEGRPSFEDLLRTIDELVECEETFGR"}, "[3]": {"tested_on": "PIK3CA (human), P42336 [I800L]"}}, "data": [{"compound": "CNc1nc(Nc2ccc(C(=O)N3CCOCC3)cc2OC)ncc1Cl", "values": [{"measurement": "kinase still bound, per cent of control", "setting": "ERBB3 (human)", "result": 100, "unit": "%"}, {"measurement": "kinase still bound, per cent of control", "setting": "MAP4K2 (human)", "result": 100, "unit": "%"}, {"measurement": "kinase still bound, per cent of control", "setting": "TGFBR2 (human)", "result": 100, "unit": "%"}, {"measurement": "kinase still bound, per cent of control", "setting": "ULK2 (human)", "result": 85, "unit": "%"}, {"measurement": "kinase still bound, per cent of control", "setting": "NEK7 (human)", "result": 88, "unit": "%"}, {"measurement": "kinase still bound, per cent of control", "setting": "MUSK (human)", "result": 100, "unit": "%"}, {"measurement": "kinase still bound, per cent of control", "setting": "[1]", "result": 100, "unit": "%"}, {"measurement": "kinase still bound, per cent of control", "setting": "NUAK2 (human)", "result": 100, "unit": "%"}, {"measurement": "kinase still bound, per cent of control", "setting": "HIPK1 (human)", "result": 79, "unit": "%"}, {"measurement": "kinase still bound, per cent of control", "setting": "MAPK3 (human)", "result": 100, "unit": "%"}, {"measurement": "kinase still bound, per cent of control", "setting": "PIP4K2B (human)", "result": 83, "unit": "%"}, {"measurement": "residual activity", "setting": "CDK4 CCND1 (human)", "result": 100, "unit": "%"}, {"measurement": "kinase still bound, per cent of control", "setting": "CHEK1 (human)", "result": 100, "unit": "%"}, {"measurement": "kinase still bound, per cent of control", "setting": "PLK3 (human)", "result": 100, "unit": "%"}, {"measurement": "kinase still bound, per cent of control", "setting": "[2]", "result": 92, "unit": "%"}, {"measurement": "residual activity", "setting": "CDK19 (human)", "result": 100, "unit": "%"}, {"measurement": "kinase still bound, per cent of control", "setting": "EIF2AK1 (human)", "result": 100, "unit": "%"}, {"measurement": "kinase still bound, per cent of control", "setting": "FGFR1 (human)", "result": 55, "unit": "%"}, {"measurement": "kinase still bound, per cent of control", "setting": "PKMYT1 (human)", "result": 97, "unit": "%"}, {"measurement": "residual activity", "setting": "CDKL2 (human)", "result": 100, "unit": "%"}, {"measurement": "kinase still bound, per cent of control", "setting": "CAMK4 (human)", "result": 100, "unit": "%"}, {"measurement": "residual activity", "setting": "CDKL3 (human)", "result": 100, "unit": "%"}, {"measurement": "residual activity", "setting": "CDK9 (human)", "result": 100, "unit": "%"}, {"measurement": "kinase still bound, per cent of control", "setting": "STK17B (human)", "result": 14, "unit": "%"}, {"measurement": "kinase still bound, per cent of control", "setting": "ACVR2B (human)", "result": 65, "unit": "%"}, {"measurement": "kinase still bound, per cent of control", "setting": "RPS6KA2 KD1 (human)", "result": 100, "unit": "%"}, {"measurement": "kinase still bound, per cent of control", "setting": "RIPK2 (human)", "result": 54, "unit": "%"}, {"measurement": "kinase still bound, per cent of control", "setting": "NEK1 (human)", "result": 91, "unit": "%"}, {"measurement": "kinase still bound, per cent of control", "setting": "CDC42BPB (human)", "result": 100, "unit": "%"}, {"measurement": "kinase still bound, per cent of control", "setting": "STK33 (human)", "result": 38, "unit": "%"}, {"measurement": "kinase still bound, per cent of control", "setting": "AAK1 (human)", "result": 38, "unit": "%"}, {"measurement": "kinase still bound, per cent of control", "setting": "NEK6 (human)", "result": 100, "unit": "%"}, {"measurement": "kinase still bound, per cent of control", "setting": "BMPR2 (human)", "result": 85, "unit": "%"}, {"measurement": "kinase still bound, per cent of control", "setting": "MAPK14 (human)", "result": 100, "unit": "%"}, {"measurement": "kinase still bound, per cent of control", "setting": "DDR2 (human)", "result": 100, "unit": "%"}, {"measurement": "kinase still bound, per cent of control", "setting": "BMX (human)", "result": 100, "unit": "%"}, {"measurement": "kinase still bound, per cent of control", "setting": "CLK2 (human)", "result": 84, "unit": "%"}, {"measurement": "kinase still bound, per cent of control", "setting": "TEC (human)", "result": 100, "unit": "%"}, {"measurement": "kinase still bound, per cent of control", "setting": "[3]", "result": 96, "unit": "%"}]}]}
